Laboratory results reported in ChEMBL document CHEMBL1201862, “PubChem BioAssay data set” (2004).
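Method: 48-hour compound exposure of cells in 96-well plates, five concentrations, linear interpolation of endpoints. At the GI50, growth is halved.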 Calls of active or inactive are those of the source. No stated cut-off is given here; in the data, active = GI50 up to about 1.1 µM and inactive = higher.

Tests used:
Experiment in all cases: NCI-60 cell line screen, 48 h
OVCAR-8 = tested on: OVCAR-8
SF-539 = tested on: SF-539
M14 = tested on: M14
Malme-3M = tested on: Malme-3M
OVCAR-4 = tested on: OVCAR-4
SK-OV-3 = tested on: SK-OV-3
KM12 = tested on: KM12
NCI-H23 = tested on: NCI-H23
LOX IMVI = tested on: LOX IMVI
SW-620 = tested on: SW-620
T47D = tested on: T47D
OVCAR-3 = tested on: OVCAR-3
CAKI-1 = tested on: CAKI-1
SF-268 = tested on: SF-268
UACC-62 = tested on: UACC-62
UO-31 = tested on: UO-31
DU-145 = tested on: DU-145
SF-295 = tested on: SF-295
SNB-75 = tested on: SNB-75
HT-29 = tested on: HT-29
MDA-MB-231 = tested on: MDA-MB-231
HL-60 = tested on: HL-60
OVCAR-5 = tested on: OVCAR-5
PC-3 = tested on: PC-3
HOP-92 = tested on: HOP-92
U-251 = tested on: U-251
SK-MEL-2 = tested on: SK-MEL-2
SK-MEL-5 = tested on: SK-MEL-5
BT-549 = tested on: BT-549
NCI-H522 = tested on: NCI-H522
HCT-15 = tested on: HCT-15
MOLT-4 = tested on: MOLT-4
HOP-62 = tested on: HOP-62
NCI-H460 = tested on: NCI-H460
MDA-N = tested on: MDA-N
SNB-19 = tested on: SNB-19
MDA-MB-435 = tested on: MDA-MB-435
RPMI-8226 = tested on: RPMI-8226
A498 = tested on: A498
ACHN = tested on: ACHN
EKVX = tested on: EKVX
CCRF-CEM = tested on: CCRF-CEM
RXF 393 = tested on: RXF 393
TK-10 = tested on: TK-10
786-0 = tested on: 786-0
Hs-578T = tested on: Hs-578T
K562 = tested on: K562
COLO 205 = tested on: COLO 205
SN12C = tested on: SN12C
MCF7 = tested on: MCF7
HCT-116 = tested on: HCT-116
A549 = tested on: A549
UACC-257 = tested on: UACC-257
NCI/ADR-RES = tested on: NCI/ADR-RES
IGROV-1 = tested on: IGROV-1
NCI-H226 = tested on: NCI-H226
SR = tested on: SR

Measured: GI50

COc1ccc(-c2sc(Br)c3c2C(=O)C2OC(=O)NC32)cc1OC (stereo unspecified)
inactive: OVCAR-8 > 100 µM | SF-539 > 100 µM | M14 > 100 µM | Malme-3M > 100 µM | OVCAR-4 > 100 µM | SK-OV-3 > 100 µM | KM12 > 100 µM | NCI-H23 > 100 µM | LOX IMVI 45.2 µM | SW-620 > 100 µM | T47D > 100 µM | OVCAR-3 > 100 µM | CAKI-1 > 100 µM | SF-268 > 100 µM | UACC-62 > 100 µM | UO-31 > 100 µM | DU-145 > 100 µM | SF-295 > 100 µM | SNB-75 > 100 µM | HT-29 > 100 µM | MDA-MB-231 > 100 µM | HL-60 > 100 µM | OVCAR-5 > 100 µM | PC-3 > 100 µM | HOP-92 > 100 µM | U-251 > 100 µM | SK-MEL-2 > 100 µM | SK-MEL-5 > 100 µM | BT-549 > 100 µM | NCI-H522 > 100 µM | MOLT-4 > 100 µM | HOP-62 > 100 µM | NCI-H460 > 100 µM | MDA-N > 100 µM | SNB-19 > 100 µM | MDA-MB-435 > 100 µM | RPMI-8226 > 100 µM | A498 > 100 µM | ACHN > 100 µM | EKVX > 100 µM | CCRF-CEM > 100 µM | RXF 393 > 100 µM | TK-10 > 100 µM | 786-0 > 100 µM | Hs-578T > 100 µM | K562 > 100 µM | COLO 205 > 100 µM | SN12C > 100 µM | MCF7 > 100 µM | HCT-116 > 100 µM | A549 > 100 µM | UACC-257 > 100 µM | NCI/ADR-RES > 100 µM | IGROV-1 > 100 µM | NCI-H226 > 100 µM | SR > 100 µM
> 100 µM: HCT-15

CCOC1Oc2ccccc2-c2nc(SC)ncc21 (stereo unspecified)
79.3 µM: HCT-15
inactive: OVCAR-8 > 100 µM | SF-539 > 100 µM | M14 > 100 µM | OVCAR-4 > 100 µM | SK-OV-3 > 100 µM | KM12 > 100 µM | NCI-H23 > 100 µM | LOX IMVI 80.7 µM | SW-620 > 100 µM | T47D 27.4 µM | OVCAR-3 > 100 µM | CAKI-1 > 100 µM | SF-268 > 100 µM | UACC-62 75.5 µM | UO-31 51.3 µM | DU-145 96.6 µM | SF-295 > 100 µM | SNB-75 > 100 µM | HT-29 52.4 µM | MDA-MB-231 62.8 µM | HL-60 45.9 µM | OVCAR-5 > 100 µM | PC-3 > 100 µM | HOP-92 29.2 µM | U-251 > 100 µM | SK-MEL-2 > 100 µM | SK-MEL-5 52.5 µM | BT-549 78 µM | NCI-H522 71.3 µM | MOLT-4 50.8 µM | NCI-H460 55.6 µM | MDA-N 64.1 µM | SNB-19 > 100 µM | MDA-MB-435 > 100 µM | RPMI-8226 70 µM | A498 28.9 µM | ACHN > 100 µM | EKVX 36 µM | CCRF-CEM > 100 µM | RXF 393 > 100 µM | TK-10 68.4 µM | 786-0 > 100 µM | Hs-578T 79.8 µM | COLO 205 > 100 µM | SN12C 89.7 µM | MCF7 66.1 µM | HCT-116 83.2 µM | A549 > 100 µM | UACC-257 > 100 µM | NCI/ADR-RES 82.8 µM | IGROV-1 35.2 µM | NCI-H226 > 100 µM | SR 87.1 µM
